Assay results taken from publication PMC4658336, “Identification and activity of inhibitors of the essential nematode-specific metalloprotease DPY-31” (Bioorganic & Medicinal Chemistry Letters, 2015).
Where a SMILES comes first, the peptide text is derived from it.

Key:
crayfish astacin = tested on: crayfish astacin; parameters: method as in PMID 8756323; conditions: cited from earlier work
[1] = biological target: T1, recombinant DPY-31 from T. circumcincta (Teladorsagia circumcincta, UniProt A0A0C5PRQ1); assay: rDPY-31 absorbance assay (astacin assay, Suc-Ala-Ala-Ala-pNA substrate); assay type: biochemical; conditions: T. circumcincta enzyme; species not given; read-out: IC50 rDPY-31 (in vitro absorbance assay)
T1 construct: made in house; host or cells: E. coli (inferred from the codon optimisation and the pET28a(+) vector)
Description: (§1) In total, 104 compounds were screened against recombinant DPY-31 from both the human parasite B. malayi as well as the sheep GI parasite T. circumcincta using an absorbance assay.[(i)], [10] […] This may be due to the extremely slow binding kinetics of these inhibitors.[17]
(§2) The 684bp and 675bp sequences encoding the astacin domains of T. circumcincta DPY-31, and B. malayi DPY-31, were codon-optimised for E. coli by GeneArt (Life Technologies), and cloned into vector pMA-T. These plasmids were then inserted into the pET28a(+) vector, expression of the encoded proteins was induced and the resulting proteins were purified following the methods described previously. Zinc metalloprotease assays were performed to determine the activity of the recombinant DPY-31 proteins from these nematode species, using the previously described method.^18
(§3) An astacin assay was performed to determine the inhibitory activity of all compounds against recombinant DPY-31 from the two nematode species. Briefly, 150 µg/ml of recombinant enzyme was incubated with 0.1 mM ZnCl2 and various concentrations (5 µM to 400 µM) of compound, and the volume was made up to a total of 100 µl with 50 mM NaPO4, pH 8.0 buffer. […] Absorbance was measured on a plate reader at 405 nm. […]

[2] = biological target: T2, recombinant DPY-31 from B. malayi (Brugia malayi, UniProt A8Q2D1); assay: as above; assay type: biochemical; conditions: ±standard error; 3 h pre-incubation, 37 °C, pH 8.0; read-out: pIC50 rDPY-31 B. malayi (converted)
T2 construct: made in house; host or cells: E. coli (inferred from the codon optimisation and the pET28a(+) vector)
Description: as §1, §2, §3

[3] = tested on: T. circumcincta dpy-31 transgenically-rescued C. elegans dpy-31 mutant TP224; assay: Phenotypic screening against transgenic rescue strain TP224; assay type: in vivo, Caenorhabditis elegans; conditions: for phenotype induced: TP224, 96 well plate, 3 days, 50 μM to 2 mM
Method: (§4) These compounds were tested against three strains: free-living wild-type C. elegans N2, the T. circumcincta dpy-31 transgenically-rescued C. elegans dpy-31 mutant TP224, and parasitic T. circumcincta (Fig. 4). Phenotypes were evaluated in 96 well plate format over the course of 3 days using concentrations ranging from 50 μM to 2 mM. […] The similarity of these effects between wild-type C. elegans, the mutant strain, and T. circumcincta reinforces the conserved nature of this metalloprotease.
Compounds 8 and 9 were screened against C. elegans N2 or TP224 L4s at 100, 250 and 1000 µM, using 96-well plates. A single L4 was placed into each of the wells in a total volume of 100 µl, made up of compound, M9 buffer and 5 µl 10x concentrated OP50. The compound concentrations were tested in duplicate for each compound. The plates were sealed with gas-permeable covers and incubated at 20 °C for 3 days, with the effects on the phenotypes recorded daily. Representative worm images were taken as described in section 5.1.

[4] = tested on: parasitic T. circumcincta; assay: Phenotypic screening against T. circumcincta L1s and L3s; assay type: in vivo, Teladorsagia circumcincta; conditions: for phenotype induced: T. circumcincta, 96 well plate, 50 μM to 2 mM
Method: as §4
T. circumcincta L1s or exsheathed L3s were incubated with compounds 8 and 9 at 100, 500 and 1000 µM. 10-20 L1s were incubated per well of a 96-well plate, each well containing compound, 5 µl 10x concentrated OP50 and EBSS (Earle’s Balanced Salt Solution; Life Technologies) to 100 µl, and 10-20 L3s were incubated per well of a 96-well plate, each well containing compound and EBSS to 100 µl. Each compound was tested in duplicate for all concentrations. The plates were sealed with gas-permeable covers and incubated at 26 °C (L1s) or 40 °C (L3s) at 100 rpm for 7-8 days and any observations on development were recorded. Representative worm images were taken as described in section 5.1.

[5] = tested on: free-living wild-type C. elegans N2; assay: Phenotypic screening against C. elegans N2 larvae; assay type: in vivo, Caenorhabditis elegans; conditions: for phenotype induced: C. elegans N2, 96 well plate, 3 days, 50 μM to 2 mM
Method: as §4
Compounds 8 and 9 were screened against C. elegans N2 L4s using 96-well plates. A single L4 was placed into each well in a total volume of 100 µL, made up of compound, M9 buffer and 5 µl 10x concentrated food (E. coli strain OP50), and incubated at 20 °C for 3 days, with the effects on the phenotypes recorded daily. The compounds were screened in duplicate at concentrations ranging from 50 µM to 2 mM. Actinonin (100 µM) was used as a positive control.^18 Representative offspring were transferred onto 2% agarose/0.01% azide pads on slides and viewed with a Zeiss Axioskop2 microscope. Images were taken using an AxioCam camera and Axiovision software.

T2 sequence (A8Q2D1 211-410): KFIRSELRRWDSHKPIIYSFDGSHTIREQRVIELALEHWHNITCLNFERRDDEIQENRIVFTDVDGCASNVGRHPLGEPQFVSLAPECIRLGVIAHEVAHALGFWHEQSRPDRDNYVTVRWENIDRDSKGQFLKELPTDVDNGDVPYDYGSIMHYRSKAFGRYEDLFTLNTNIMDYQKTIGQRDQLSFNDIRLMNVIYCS
T1 sequence (A0A0C5PRQ1 151-614): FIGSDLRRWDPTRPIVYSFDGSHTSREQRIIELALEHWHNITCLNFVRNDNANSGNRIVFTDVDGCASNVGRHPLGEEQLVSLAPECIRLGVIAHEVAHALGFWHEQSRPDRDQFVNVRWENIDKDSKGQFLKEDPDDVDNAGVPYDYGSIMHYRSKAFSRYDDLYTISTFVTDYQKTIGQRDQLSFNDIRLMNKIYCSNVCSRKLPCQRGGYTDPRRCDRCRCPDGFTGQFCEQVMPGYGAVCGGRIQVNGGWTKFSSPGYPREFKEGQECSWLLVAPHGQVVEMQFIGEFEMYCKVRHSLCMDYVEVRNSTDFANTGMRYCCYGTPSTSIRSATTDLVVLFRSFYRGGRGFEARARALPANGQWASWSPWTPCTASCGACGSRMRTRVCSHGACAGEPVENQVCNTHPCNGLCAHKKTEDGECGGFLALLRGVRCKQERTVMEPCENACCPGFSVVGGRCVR

In the case of COC(=O)C1CCCN1C(=O)C(C)CP(=O)(O)C(Cc1ccccc1)NC(=O)C(CCCCN)NC(=O)C1CCCN1C(=O)OCc1ccccc1 (stereo not drawn) [Compound 1], the “inhibition of crayfish astacin” value (crayfish astacin) is given as “mid-μM inhibitor” and the IC50 [1] is given as greater than 500 µM.
With CNC(=O)[C@@H](NC(=O)[C@H](CC(C)C)[C@H](O)C(=O)NO)C(C)(C)C [Compound 3, marimastat] the IC50 [2] was 200 µM.
For C[C@H](NC(=O)[C@@H]1CCCN1C(=O)OC(C)(C)C)C(=O)N[C@@H](Cc1ccccc1)C(=O)NO [Compound 8] (HELM PEPTIDE1{[CC(C)(C)OC(=O)[*:2]].P.A.F.[ON[*:1]]}$$$$V2.0), the “phenotype observed (Figure 4d)” value ([3]; L1 TP224, 100 μM) was “Dpy L1 phenotype”, the phenotype induced [3] was “induce the Dpy phenotype” and the phenotype induced [4] was “induce the Dpy phenotype”. For the same compound, the phenotype induced [5] was “induce the Dpy phenotype” and the “phenotype observed (Figure 4b)” value ([5]; L1 C. elegans (N2), 50 μM) was “Dpy phenotype”.
In the case of C[C@H](NC(=O)[C@@H]1CCCN1C(=O)OCC1c2ccccc2-c2ccccc21)C(=O)N[C@@H](Cc1ccccc1)C(=O)NO [Compound 9] (HELM PEPTIDE1{[O=C(OCC1c2ccccc2-c2ccccc21)[*:2]].P.A.F.[ON[*:1]]}$$$$V2.0), the phenotype induced [3] is reported as “induce the Dpy phenotype”, the “phenotype observed (Figure 4f)” value ([4]; T. circumcincta L3, 500 μM) is reported as “Dpy phenotype” and the phenotype induced [4] is reported as “induce the Dpy phenotype”. The phenotype induced [5] was “induce the Dpy phenotype”.
